Measured values taken from patent US6645755B1, “VECTOR MODIFIED BY SEQUENCE CODING FOR A SEQUENCE OF AMINO ACIDS CONTAINED IN A MAMMALIAN PROTEIN HAVING THE BIOLOGICAL ACTIVITY OF A MEMBRANE RECEPTOR, EXPRESSION OF THIS SEQUENCE IN TRANSFORMED UNICELLULAR CULTURES BY MEANS OF THIS VECTOR, PROCEDURE FOR STUDYING LIGANDS RECOGNIZING THESE RECEPTORS” (Centre National de la Recherche Scientifique, priority 1988, dated 2003).
Like-named read-outs stand apart in the source and are kept apart here.

Legend:
[1] = target: mamm. β2AR; conditions: reference mammalian tissues; cited from earlier work
[2] = test system: mamm. β1AR; conditions: reference mammalian tissues, cited from earlier work; for mamm. β1/β2: Ki ratio
[3] = test system: Huβ1AR; assay: Competition binding against ICYP on E. coli expressing Huβ1AR (pSMLβ1); conditions: ratio of Ki on Huβ1AR and Huβ2AR expressed in E. coli
[4] = target: Huβ2AR (Homo sapiens, UniProt P07550); assay: Competition binding against ICYP on E. coli expressing Huβ2AR (pSMLβ2)
[5] = target: T1, human β2-adrenergic receptor (Homo sapiens, UniProt P07550); assay: cell-based; assay type: binding
T1 construct: extending from the NcoI site to the DraI site which contained the coding region for the human β2-adrenergic receptor; β-galactosidase (lacZ product of λgt11, fused at the EcoRI site near the 3' end of lacZ) (N); linker Asp-Asp-Pro (acid-cleavable) (N); expressed in transfected cells; host or cells: E. coli Y1089 lysogenized with recombinant λgt11

[6] = target: Huβ1AR (Homo sapiens, UniProt P08588); assay: Competition binding against ICYP on E. coli expressing Huβ1AR (pSMLβ1)
Chain of Huβ1AR (Homo sapiens, UniProt P08588) (P08588 58-377 limits assumed): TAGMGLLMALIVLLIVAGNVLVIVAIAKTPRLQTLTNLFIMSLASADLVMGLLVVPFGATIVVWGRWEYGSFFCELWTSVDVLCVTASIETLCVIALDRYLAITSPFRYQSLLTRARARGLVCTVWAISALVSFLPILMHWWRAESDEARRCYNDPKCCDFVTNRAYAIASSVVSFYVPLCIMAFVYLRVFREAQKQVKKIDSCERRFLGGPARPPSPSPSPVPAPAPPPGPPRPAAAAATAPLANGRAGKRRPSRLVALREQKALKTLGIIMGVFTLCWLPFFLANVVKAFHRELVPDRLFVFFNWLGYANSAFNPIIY

Ki ([4]; read-out: Ki E. coli Huβ2AR, 10 pM ICYP as radioligand, Ki calculated from IC50)	Compound	Ki [1]	mamm. β1/β2 [2]	Ki [2]	E. coli Kiβ1/Kiβ2 [3]	Ki [5]	Ki [4]	Ki [6]	Ki ([6]; read-out: Ki E. coli Huβ1AR, 10 pM ICYP as radioligand, Ki calculated from IC50)
	CNC[C@H](O)c1ccc(O)c(O)c1 [epinephrine]	403 nM	4,7	1900 nM					
	CS(=O)(=O)O.Cn1cc(C(F)(F)F)nc1-c1ccc(OCC(O)CNCCOc2ccc(O)c(C(N)=O)c2)cc1 (centres unmarked) [CGP 20712-A]	982 nM	0,003	3.24 nM	0,0005				
	NC[C@H](O)c1ccc(O)c(O)c1 [norepinephrine]	1880 nM	1,49	2800 nM					
3.83 nM	OC(CNCC(O)C1CCc2cc(F)ccc2O1)C1CCc2cc(F)ccc2O1 (centres unmarked) [R67555]	46 nM	0,02	0.9 nM					
	CCC(NC(C)C)C(O)c1ccc(O)c2[nH]c(=O)ccc12 (centres unmarked) [procaterol]				84,1	40 ± 8 nM	55.3 nM	4650 nM	
	CC(C)NCC(O)COc1cccc2ccccc12 (centres unmarked) [propranolol]		5,5						
	(−) epinephrine					4700 ± 1400 nM			
	Cc1ccc(OCC(O)C(C)NC(C)C)c2c1CCC2 (centres unmarked) [ICI 118,551]		130	86 nM					
	CC(C)(Cc1ccccc1)NCC(O)c1ccc(O)c(NS(C)(=O)=O)c1 (centres unmarked) [zinterol]	21 nM	8,1	170 nM	18,4		9.14 nM	168 nM	
	CC(C)(C)NCC(O)c1cc(Cl)c(N)c(Cl)c1 (centres unmarked) [clembuterol]	14 nM	5,1	71 nM					37 nM
